Data taken from patent EP0150638A1, “Pyrethroid composition for the local treatment of skin diseases” (CENTRE DE RECHERCHE D'APPLICATIONS PHARMACEUTIQUES …, priority 1983, dated 1985).

Test: primary cutaneous irritation test
Type: in vivo, lapin
Settings: rabbit; compared with other allethrin isomers, natural pyrethrin, or hydrocarbon-containing compositions
Description: Le pouvoir irritant des compositions selon l'invention a été étudié chez le lapin, par un test d'irritation cutanée primaire, dont les conditions de réalisation sont définies dans le Journal Officiel de la République Française du 21 avril 1971, complété par celui du 5 juin 1973. Il a été comparé à celui des compositions où des pyréthrines naturelles remplaçaient les pyréthrinoldes de l'invention et à celui de compositions résultant du mélange des pyréthrinoides et d'huile de vaseline ou d'isododécane.

C=CCC1=C(C)[C@@H](OC(=O)[C@@H]2[C@@H](C=C(C)C)C2(C)C)CC1=O [pyréthrinoide de l'exemple 1, d-transchrysanthémate de d-alléthrolone]
pouvoir irritant (comparison in words): beaucoup moins irritant
